Several values for one entry are separate records, joined by “and”; a condition that tells them apart may be missing. Equal values may be shown once. Read-outs that look alike come from different tables or passages of the source. Ends that are not written are not given here.
What was measured:
hIDE F202L = biological target: T1, hIDE F202L (Homo sapiens, UniProt P14735, F202L); experiment: Small molecule-enzyme mutant complementation study; assay type: biochemical; settings: F202L vs hIDE WT, batch 1
T1 construct: The reported N-His6-tagged human IDE42-1019 construct; made in house; host or cells: E. coli Rosetta 2 (DE3) pLysS
From the text: (§1) Protease assays with fluorogenic peptide substrates. […] All assay data points were obtained in duplicate.
(§2) Site-directed mutagenesis, expression, and purification of human IDE. The reported N-His6-tagged human IDE42-1019 construct was introduced in the expression plasmid pTrcHis-A (Invitrogen) using primers for uracil-specific excision reactions (USER) by Taq (NEB) and Pfu polymerases (PfuTurbo CX®, Agilent). The IDE gene was amplified with the primers 5′-[…]-dU-[…] and 5′-[…] G-dU-[…] (underlined sequences represent overhangs, and italics highlight the PCR priming sequence). Similarly, the pTrcHis-A vector was amplified for USER cloning with the primers 5′-[…] TGA-dU-[…] CCC and 5′-[…]-dU-[…]. Mutant IDE constructs were generated by amplifying the full vector construct with USER cloning primers introducing a mutant overhang (Table 5).
(§3) All PCR products were purified on microcentrifuge membrane columns (MinElute®, Qiagen) and quantified by UV absorbance (NanoDrop). Each fragment (0.2 pmol) was combined in a 10 μL reaction mixture containing 20 units DpnI (NEB), 0.75 units of USER mix (Endonuclease VIII and Uracil-DNA Glycosylase, NEB), 20 mM Tris-acetate, 50 mM potassium acetate, 10 mM magnesium acetate, 1 mM dithiothreitol at pH 7.9 (1× NEBuffer 4). The reactions were incubated at 37° C. for 45 min, followed by heating to 80° C. and slow cooling to 30° C. (0.2° C./s). The hybridized constructs were directly used for heat-shock transformation of chemically competent NEB turbo E. coli cells according to the manufacturer's instructions. Transformants were selected on carbenicillin LB agar, and isolated colonies were cultured overnight in 2 mL LB.
(§4) The plasmid was extracted using a microcentrifuge membrane column kit (Miniprep®, Qiagen), and the sequence of genes and vector junctions were confirmed by Sanger sequencing (Table 6). The plasmid constructs were transformed by heat-shock into chemically-competent expression strain Rosetta 2 (DE3) pLysS E. coli cells (EMD Millipore), and selected on carbenicillin/chloramphenicol LB agar. Cells transformed with IDE pTrcHis A constructs were cultured overnight at 37° C. in 2 XYT media (31 g in 1 L) containing 100 μg/mL ampicillin and 34 μg/mL chloramphenicol. Expression of His6-tagged IDE proteins was induced when the culture measured OD600 ˜0.6 by addition of isopropyl-β-D-1-thiogalactopyranoside (IPTG) to 1 mM final concentration, incubated overnight at 37° C., followed by centrifugation at 10,000 g for 30 min at 4° C.
(§5) Recombinant His6-tagged proteins were purified by Ni(II)-affinity chromatography (IMAC sepharose beads, GE Healthcare®) according to the manufacturer's instructions. The cell pellets were resuspended in pH 8.0 buffer containing 50 mM phosphate, 300 mM NaCl, 10 mM imidazole, 1% Triton X-100 and 1 mM tris(2-carboxyethyl)phosphine hydrochloride (TCEP), and were lysed by probe sonication for 4 min at 4° C., followed by clearing of cell debris by centrifugation at 10,000 g for 25 min at 4° C. The supernatant was incubated with Ni(II)-doped IMAC resin (2 mL) for 3 h at 4° C. The resin was washed twice with the cell resuspension/lysis buffer, and three times with pH 8.0 buffer containing 50 mM phosphate, 300 mM NaCl,50 mM imidazole and 1 mM TCEP. Elution was performed in 2 mL aliquots by raising the imidazole concentration to 250 mM and subsequently to 500 mM in the previous buffer. The fractions were combined and the buffer was exchanged to the recommended IDE buffer (R&D) using spin columns with 100 KDa molecular weight cut off membranes (Millipore). Protein yields were typically ˜10 μg/L, and >90% purity based on gel electrophoresis analysis (Coomassie stained).

hIDE I310R = biological target: T2, hIDE I310R (Homo sapiens, UniProt P14735, I310R); experiment: Small molecule-enzyme mutant complementation study; assay type: biochemical; settings: I310R vs hIDE WT, batch 2
T2 construct: The reported N-His6-tagged human IDE42-1019 construct; made in house; host or cells: E. coli Rosetta 2 (DE3) pLysS
From the text: as §1, §2, §3, §4, §5

hIDE F202R = biological target: T3, hIDE F202R (Homo sapiens, UniProt P14735, F202R); experiment: Small molecule-enzyme mutant complementation study; assay type: biochemical; settings: F202R vs hIDE WT, batch 2
T3 construct: The reported N-His6-tagged human IDE42-1019 construct; made in house; host or cells: E. coli Rosetta 2 (DE3) pLysS
From the text: as §1, §2, §3, §4, §5

hIDE A198T = biological target: T4, hIDE A198T (Homo sapiens, UniProt P14735, A198T); experiment: Small molecule-enzyme mutant complementation study; assay type: biochemical; settings: A198T vs hIDE WT, batch 2
T4 construct: The reported N-His6-tagged human IDE42-1019 construct; made in house; host or cells: E. coli Rosetta 2 (DE3) pLysS
From the text: as §1, §2, §3, §4, §5

hIDE W199F = biological target: T5, hIDE W199F (Homo sapiens, UniProt P14735, W199F); experiment: Small molecule-enzyme mutant complementation study; assay type: biochemical; settings: W199F vs hIDE WT, batch 2
T5 construct: The reported N-His6-tagged human IDE42-1019 construct; made in house; host or cells: E. coli Rosetta 2 (DE3) pLysS
From the text: as §1, §2, §3, §4, §5

hIDE K364A = biological target: T6, hIDE K364A (Homo sapiens, UniProt P14735, K364A); experiment: Small molecule-enzyme mutant complementation study; assay type: biochemical; settings: K364A vs hIDE WT, batch 2
T6 construct: The reported N-His6-tagged human IDE42-1019 construct was introduced in the expression plasmid pTrcHis-A; made in house; host or cells: E. coli Rosetta 2 (DE3) pLysS
From the text: as §1, §2, §3, §4, §5

hIDE WT = biological target: T7, hIDE WT (Homo sapiens, UniProt P14735); experiment: Small molecule-enzyme mutant complementation study, wild type; assay type: biochemical
T7 construct: The reported N-His6-tagged human IDE42-1019 construct; made in house; host or cells: E. coli Rosetta 2 (DE3) pLysS
From the text: as §1, §2, §3, §4, §5

IDE [1] = settings: cited from earlier work; for Km / kcat / KM: IDE substrate; for Degradation: degradation kinetics compared to insulin
IDE [2] = experiment: Literature survey of IDE substrates, in vitro degradation kinetics; assay type: biochemical; settings: KM estimated based on IC50 for inhibition of insulin degradation
IDE [3] = settings: inhibition of insulin degradation, cited from earlier work
IDE [4] = biological target: IDE (Homo sapiens, UniProt P14735); experiment: Protease assay with fluorogenic peptide substrate Mca-[…](Dnp)-OH (IDE species not given); assay type: biochemical; parameters: The proteases IDE42-1019, recombinant human IDE42-1019 (R&D Systems); settings: heavy-labeled vs 6bK
Protocol: All data points and error bars represent mean±SEM. Significance tests were performed using two-tail Student's t-test, and significance levels shown in the figures are p<0.05 (*) or p<0.01 (**) versus the vehicle-only control group. The in vitro selection of the DNA-templated macrocycle libraryl^16,17 used 20 μg His6-tagged mouse IDE immobilized on cobalt magnetic beads (Dynabeads, Invitrogen). IDE proteolytic activity was assayed with fluorogenic peptide Mca-[…](Dnp)-OH (R&D). IDE inhibition was confirmed using an anti-insulin antibody time-resolved FRET assay (Cysbio), and using an LCMS assay for CGRP cleavage fragments CGRP1-17 and CGRP18-37 in plasma^18. […] Protease assays with fluorogenic peptide substrates. […] (R&D). All assay data points were obtained in duplicate.

T7 sequence (P14735 42-1019): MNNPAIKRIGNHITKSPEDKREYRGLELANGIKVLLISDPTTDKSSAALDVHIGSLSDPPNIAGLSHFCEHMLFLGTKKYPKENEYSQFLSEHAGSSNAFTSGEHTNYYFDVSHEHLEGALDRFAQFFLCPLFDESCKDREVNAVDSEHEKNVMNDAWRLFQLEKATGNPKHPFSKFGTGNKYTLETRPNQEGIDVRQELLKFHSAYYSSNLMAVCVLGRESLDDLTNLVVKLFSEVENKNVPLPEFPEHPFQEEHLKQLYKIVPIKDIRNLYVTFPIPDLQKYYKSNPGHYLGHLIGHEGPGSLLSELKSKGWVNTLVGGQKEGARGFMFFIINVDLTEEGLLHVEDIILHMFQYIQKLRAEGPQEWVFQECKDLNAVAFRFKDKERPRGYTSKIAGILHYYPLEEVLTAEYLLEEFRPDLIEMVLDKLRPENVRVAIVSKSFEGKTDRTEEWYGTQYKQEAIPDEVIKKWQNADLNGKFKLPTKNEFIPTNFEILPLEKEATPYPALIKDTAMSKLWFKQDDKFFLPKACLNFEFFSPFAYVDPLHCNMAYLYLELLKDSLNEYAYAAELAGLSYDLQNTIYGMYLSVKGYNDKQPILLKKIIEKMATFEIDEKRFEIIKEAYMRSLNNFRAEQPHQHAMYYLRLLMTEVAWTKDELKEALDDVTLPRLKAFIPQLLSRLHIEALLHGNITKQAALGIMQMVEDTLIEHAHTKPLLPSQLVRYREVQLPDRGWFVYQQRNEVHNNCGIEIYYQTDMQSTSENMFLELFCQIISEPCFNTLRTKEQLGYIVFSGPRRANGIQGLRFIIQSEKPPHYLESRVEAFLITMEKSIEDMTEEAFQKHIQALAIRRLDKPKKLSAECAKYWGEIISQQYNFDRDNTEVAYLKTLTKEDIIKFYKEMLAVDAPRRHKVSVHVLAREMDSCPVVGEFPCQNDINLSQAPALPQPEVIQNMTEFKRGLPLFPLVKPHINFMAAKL
T5 sequence (P14735 42-1019 W199F): as the sequence (P14735 42-1019) above, with W158F counted along it
T4 sequence (P14735 42-1019 A198T): as the sequence (P14735 42-1019) above, with A157T counted along it
T1 sequence (P14735 42-1019 F202L): as the sequence (P14735 42-1019) above, with F161L counted along it
Sequence of IDE (Homo sapiens, UniProt P14735) (P14735 42-1019): as the sequence (P14735 42-1019) above
T6 sequence (P14735 42-1019 K364A): as the sequence (P14735 42-1019) above, with K323A counted along it
T3 sequence (P14735 42-1019 F202R): as the sequence (P14735 42-1019) above, with F161R counted along it
T2 sequence (P14735 42-1019 I310R): as the sequence (P14735 42-1019) above, with I269R counted along it

Row | Compound | Km (IDE [1]) | kcat (IDE [1]) | Degradation (IDE [1]) | also measured
1 | CC(C)CC1NC(=O)C(CCC(N)=O)NC(=O)C=CC(=O)NC(C(N)=O)CCCCNC(=O)C(Cc2ccc(C(=O)c3ccccc3)cc2)NC1=O (centres unmarked) [Compound 13] |  |  |  | IC50 shift (hIDE F202L): 2.3 fold; IC50 shift (hIDE I310R): 0.7 fold; IC50 shift (hIDE F202R): 4.1 fold; IC50 shift (hIDE A198T): 13.6 fold; IC50 shift (hIDE W199F): 3.2 fold; IC50 shift (hIDE K364A): 10.0 fold; IC50 shift (hIDE WT; batch 1 (reference)): 1.0 fold; IC50 shift (hIDE WT; batch 2 (reference)): 1.0 fold; IC50 shift (hIDE WT; batch 3 (reference)): 1.0 fold
2 | amyloid-β peptide(40/42) [Aβ (40, 42)] | 1.23 µM | 0.867 s⁻¹ | Fast | 
3 | relaxin |  |  | Fast | Km (IDE [2]): 0.11 µM; IC50 (IDE [3]; read-out: IC50): 54 nM
4 | dynorphin A (1-8) (YGGFLRRI; Dynorphin A(1-8); UniProt P01213 207-214, looked up) [IDE substrate in vitro] | 63.5 µM | 0.011 s⁻¹ |  | 
5 | dynorphin B (1-9) (YGGFLRRQF; Rimorphin; UniProt P01213 226-234, looked up, fragment) [IDE substrate in vitro] | 26.8 µM | 0.172 s⁻¹ |  | 
6 | kallidin | 7.3 µM |  | Slow | 
7 | NC(=O)C1CCCCNC(=O)C(Cc2ccc(C(=O)c3ccccc3)cc2)NC(=O)C(CC2CCCCC2)N[13C](=O)[13CH]([13CH2][13CH2][13CH2][13CH2][15NH2])[15NH]C(=O)C=CC(=O)N1 (centres unmarked) [heavy 6bK] |  |  |  | IC50 compared with 6bK (IDE [4]): identical
8 | dynorphin A (1-13) (YGGFLRRIRPKLK; Dynorphin A(1-13); UniProt P01213 207-219, looked up) [IDE substrate in vitro] | 40.6 µM | 0.0623 s⁻¹ |  | 
9 | insulin-like growth factor-1 [IGF-1] |  |  | Slow | KM (IDE [1]): Weak
10 | transforming growth factor-alpha [TGF-α] |  |  | Fast | Km (IDE [2]): 0.15 µM; IC50 (IDE [3]; read-out: IC50): 80 nM
11 | glucagon | 3.5 µM and 3.46 µM | 0.633 s⁻¹ and 0.642 s⁻¹ | Slow | IC50 (IDE [3]): weak
12 | insulin-like growth factor-2 [IGF-2] |  |  | Fast | Km (IDE [2]): 0.1 µM; IC50 (IDE [3]; read-out: IC50): 60 nM
13 | CC(C)(C)c1ccc(CC2NC(=O)C(CC3CCCCC3)NC(=O)C(CCC(N)=O)NC(=O)C=CC(=O)NC(C(N)=O)CCCCNC2=O)cc1 (centres unmarked) [Compound 9] |  |  |  | IC50 shift (hIDE WT; batch 1 (reference)): 1.0 fold
14 | insulin | < 0.03 µM | 0.0253 s⁻¹ | Fast | 
15 | dynorphin A (1-10) | 39.4 µM | 0.0623 s⁻¹ |  | 
16 | B-type natriuretic peptide [B-type NP (BNP)] |  |  | Slow | IC50 (IDE [3]; read-out: IC50): > 1000 nM; KM (IDE [1]): weak
17 | pancreastatin (1-49) (SEALAVDGAGKPGAEEAQDPEGKGEQEHSQQKEEEEEMAVVPQGLFRGG; Pancreastatin; UniProt P10645 272-320, looked up, fragment) [IDE substrate in vitro] | 41.7 µM | 0.177 s⁻¹ | Slow | 
18 | atrial natriuretic peptide [atrial NP (ANP)] | 0.06 µM |  | Fast | 
19 | dynorphin A (1-9) | 60.5 µM | 0.0055 s⁻¹ |  | 
20 | bradykinin (RPPGFSPFR; Bradykinin; UniProt P01042 381-389, looked up) [IDE substrate in vitro] | 4.2 µM |  | Slow | 
21 | somatostatin-14 | 7.5 µM | 0.38 s⁻¹ | Slow | 
22 | relaxin-3 |  |  | Fast | Km (IDE [2]): 0.36 µM; IC50 (IDE [3]; read-out: IC50): 182 nM
23 | growth hormone releasing factor (1-29) | 11.9 µM | 0.39 s⁻¹ | Slow | 
24 | amylin (KCNTATCATQRLANFLVHSSNNFGAILSSTNVGSNTY; not fully specified (C-terminus, bridges); cysteine pairing not given here; UniProt P10997 34-70, looked up) [IDE substrate in vitro] | ~0.3 µM |  | Medium | Km (IDE [2]): 0.3 µM; IC50 (IDE [3]; read-out: IC50): 160 nM
25 | β-endorphin (1-31) | 13 µM | 0.35 s⁻¹ | Slow | 
26 | dynorphin B (1-13) | 18.3 µM | 0.252 s⁻¹ |  | 
27 | dynorphin A (1-17) | 37.4 µM | 0.307 s⁻¹ |  | 

Source: patent US20160282364A1, “ASSAY FOR INSULIN-DEGRADING ENZYME (IDE) INHIBITORS” (PRESIDENT AND FELLOWS OF HARVARD COLLEGE, priority 2013, published 2016)
